The values that follow are results of earlier work, collected in patent publication US20150050358A1, “IMPLANT SUPPORT COMPOSITION AND METHODS OF USE” (REGENTS OF THE UNIVERSITY OF MINNESOTA, priority 2013, published 2015).

For this data set the following is noted: antibiotic solution.

As for `Cc1ncc([N+](=O)[O-])n1CCO` [metronidazole], the pH of solution is recorded as 4.5-7.0 pH.
